In ChEMBL document CHEMBL5230087, “Inhibitors of SARS-CoV-2 Entry: Current and Future Opportunities” (J Med Chem, 2020) one finds IC50 and CC50 data, which are given here for 1 compound.

For one data set, the system named is Human coronavirus 229E. The data set is described as follows: Antiviral activity against HCoV-229E assessed as reduction of viral RNA level at 4 uM. Type of data set: functional, organism-based.
The subject of a further data set is HeLa. The data set is described as follows: Antiproliferative activity against human HeLa cells assessed as reduction in cell growth inhibition. Type of data set: functional, cell-based.
The nature of data set [1]: Cytotoxicity against African green monkey Vero cells by MTT assay. Type of data set: toxicity, cell-based. To be noted: chlorocebus sabaeus. For orientation: Tetrazolium assays rely on reduction of a dye to a coloured formazan, in cell work by metabolically active cells.

SMILES strings stand for the structures.

Usually IC50 stands for the concentration at which inhibition is half-maximal. In general, CC50 refers to the concentration that lowers cell viability or growth by half. In the case of `CN1CCN(CCOc2cc(OC3CCOCC3)c3c(Nc4c(Cl)ccc5c4OCO5)ncnc3c2)CC1` [SARACATINIB], the IC50 in the data set on Human coronavirus 229E stood at 5.1 µM; with HeLa, 2.4 µM. For the same compound, the CC50 in data set [1] was above 50 µM.
